This is an account of results in US4351948A, “Imidazole hydrazone derivatives” (priority 1980, dated 1982).

The subject of assay [1] is Clostridium sporogenes ATCC 19404. The experiment in a line: Minimal inhibitory concentration against anaerobic bacteria. The format is cell-based. As to conditions: ATCC19404, 24 h.
Assay [2] has as its system C. perfringens (ATCC 13124). As to the kind of experiment: microbe, parasite or virus in culture. The format is cell-based. The note with it: Clostridium perfringens, ATCC13124, 24 h.
In assay [3] the test system is Bacteroides fragilis ATCC 23745. As to the kind of experiment: Minimal inhibitory concentration against anaerobic bacteria. The note with it: ATCC23745, 24 h.
In assay [4] the test system is Bacteroides uniformis ATCC 8492. The description is as above. As to conditions: ATCC8492, 24 h.
The test system of assay [5] is Desulfovibrio desulfuricans API-CORE. The assay is described as above. As to conditions: 24 h.
Assay [6] concerns Desulfovibrio desulfuricans API-BREWER. The description is as above. As to conditions: 24 h.
Assay [7] concerns Desulfovibrio desulfuricans API-SW2. The assay is described as above. As to conditions: for Minimal Inhibitory Concentration: 24 hours at 37° C.
Setting [8] is: read-out: Minimal Inhibitory Concentration, Test 1, 24 hours at 37° C.
The mark [9] stands for this setting: read-out: Minimal Inhibitory Concentration, Test 2, 24 hours at 37° C.
Where [10] appears, read: read-out: Minimal Inhibitory Concentration, Test 3, 24 hours at 37° C.

Values after ≈ are worked out from the molar mass of the structure shown. Read-outs that look alike come from different tables or passages of the source.

As for `Cc1ncc([N+](=O)[O-])n1CCO` [Metronidazole, 2-methyl-5-nitro-1H-imidazole-1-ethanol, reference compound], the MIC is 0.5 µg/mL (≈ 2.92 µM) in assay [1] (Test 1, 24 hours at 37° C.); 0.25 µg/mL (≈ 1.46 µM) in assay [1] (Test 2, 24 hours at 37° C.); 0.75 µg/mL (≈ 4.38 µM) in assay [1] (Test 3, 24 hours at 37° C.); 0.3 µg/mL (≈ 1.75 µM) in assay [2]; 0.75 µg/mL (≈ 4.38 µM) in assay [3] (setting [8]); 0.75 µg/mL (≈ 4.38 µM) in assay [3] (setting [9]). In addition, the MIC in assay [3] (setting [10]) is 0.5 µg/mL (≈ 2.92 µM); in assay [4] (setting [8]), 0.5 µg/mL (≈ 2.92 µM); in assay [4] (setting [9]) it was 0.25 µg/mL (≈ 1.46 µM); in assay [4] (setting [10]) it was 0.25 µg/mL (≈ 1.46 µM); in assay [5] (setting [8]), 0.5 µg/mL (≈ 2.92 µM); in assay [5] (setting [9]), 0.25 µg/mL (≈ 1.46 µM). Besides, the MIC turned out to be 0.25 µg/mL (≈ 1.46 µM) in assay [5] (setting [10]); 0.5 µg/mL (≈ 2.92 µM) in assay [6] (setting [8]); 0.5 µg/mL (≈ 2.92 µM) in assay [6] (setting [9]); 0.5 µg/mL (≈ 2.92 µM) in assay [6] (setting [10]); 0.25 µg/mL (≈ 1.46 µM) in assay [7] (Desulfovibrio desulfuricans, APISW2, 24 h, read-out: Minimal Inhibitory Concentration). The “Minimal Inhibitory Concentration” value in assay [7] (Test 2) and in assay [7] (Test 3) was 0.25 mg/L each time.
